Assay results as given in PubChem BioAssay (NCI).
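All cell lines were grown in 96-well plates and treated with compound for 48 hours. The concentration for 50% growth inhibition is given as GI50. The concentration for full growth arrest is given as TGI.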

Tests used:
Assay in all cases: inhibition of tumour cell growth, NCI panel, 48 h
[1] = test system: COLO 205 colon
[2] = test system: RXF 393 renal
[3] = test system: NCI/ADR-RES ovarian
[4] = test system: PC-3 prostate
[5] = test system: KM12 colon
[6] = test system: EKVX NSCLC
[7] = test system: OVCAR-3 ovarian
[8] = test system: IGROV1 ovarian
[9] = test system: MCF7 breast
[10] = test system: 786-0 renal
[11] = test system: SK-OV-3 ovarian
[12] = test system: MALME-3M melanoma
[13] = test system: TK-10 renal
[14] = test system: MDA-MB-231 breast
[15] = test system: HCC-2998 colon
[16] = test system: SK-MEL-5 melanoma
[17] = test system: U251 CNS
[18] = test system: SF-268 CNS
[19] = test system: UACC-62 melanoma
[20] = test system: HL-60(TB) leukemia
[21] = test system: MDA-MB-435
[22] = test system: SN12C renal
[23] = test system: UO-31 renal
[24] = test system: NCI-H23 lung
[25] = test system: HCT-116 colon
[26] = test system: HCT-15 colon
[27] = test system: HT29 colon
[28] = test system: SR leukemia
[29] = test system: OVCAR-4 ovarian
[30] = test system: NCI-H226 lung
[31] = test system: OVCAR-5 ovarian
[32] = test system: SF-539 CNS
[33] = test system: CAKI-1 renal
[34] = test system: DU-145 prostate
[35] = test system: SNB-19 CNS
[36] = test system: SW-620 colon
[37] = test system: NCI-H460 lung
[38] = test system: NCI-H522 lung
[39] = test system: A549 NSCLC
[40] = test system: OVCAR-8 ovarian
[41] = test system: HOP-62 NSCLC
[42] = test system: RPMI-8226 leukemia
[43] = test system: M14 melanoma
[44] = test system: SK-MEL-28 melanoma
[45] = test system: T-47D breast
[46] = test system: SF-295 CNS
[47] = test system: CCRF-CEM leukemia
[48] = test system: K-562 leukemia
[49] = test system: MOLT-4 leukemia
[50] = test system: HS 578T breast
[51] = test system: UACC-257 melanoma
[52] = test system: HOP-92 NSCLC
[53] = test system: BT-549 breast
[54] = test system: SK-MEL-2 melanoma
[55] = test system: ACHN renal
[56] = test system: A498 renal
[57] = test system: LOX IMVI melanoma
[58] = test system: SNB-75 CNS

O=C1/C(=C/c2ccccc2)SC(=Nc2ccccc2)N1Nc1ccccc1
GI50 [1]: 20.3 µM | TGI [1]: > 100 µM | GI50 [2]: 8.44 µM | TGI [2]: 30 µM | GI50 [3]: 18.1 µM | TGI [3]: > 100 µM | GI50 [4]: 4.49 µM | TGI [4]: > 100 µM | GI50 [5]: 19 µM | TGI [5]: > 100 µM | GI50 [6]: 7.28 µM | TGI [6]: > 100 µM | GI50 [7]: 10.2 µM | TGI [7]: 91.2 µM | GI50 [8]: 12.7 µM | TGI [8]: > 100 µM | GI50 [9]: 7.91 µM | TGI [9]: 83.5 µM | GI50 [10]: 6.57 µM | TGI [10]: > 100 µM | GI50 [11]: 24.4 µM | TGI [11]: > 100 µM | GI50 [12]: 19.8 µM | TGI [12]: 66.8 µM | GI50 [13]: 36.5 µM | TGI [13]: > 100 µM | GI50 [14]: 18.7 µM | TGI [14]: > 100 µM | GI50 [15]: 20 µM | TGI [15]: > 100 µM | GI50 [16]: 14.4 µM | TGI [16]: 28.8 µM | GI50 [17]: 12.9 µM | TGI [17]: > 100 µM | GI50 [18]: 31.3 µM | TGI [18]: > 100 µM | GI50 [19]: 10.3 µM | TGI [19]: 39.4 µM | GI50 [20]: 10.4 µM | TGI [20]: 68.9 µM | GI50 [21]: 15.1 µM | TGI [21]: 48 µM | GI50 [22]: 5.48 µM | TGI [22]: 23.4 µM | GI50 [23]: 7.94 µM | TGI [23]: > 100 µM | GI50 [24]: 22.6 µM | TGI [24]: > 100 µM | GI50 [25]: 4.49 µM | TGI [25]: > 100 µM | GI50 [26]: 5.1 µM | TGI [26]: > 100 µM | GI50 [27]: 10.8 µM | TGI [27]: > 100 µM | GI50 [28]: 21.3 µM | TGI [28]: > 100 µM | GI50 [29]: 7.96 µM | TGI [29]: > 100 µM | GI50 [30]: 10.9 µM | TGI [30]: 30.5 µM | GI50 [31]: 34.1 µM | TGI [31]: > 100 µM | GI50 [32]: 27.2 µM | TGI [32]: 99.5 µM | GI50 [33]: 13.7 µM | TGI [33]: > 100 µM | GI50 [34]: 32.2 µM | TGI [34]: > 100 µM | GI50 [35]: 13.5 µM | TGI [35]: > 100 µM | GI50 [36]: 17.6 µM | TGI [36]: > 100 µM | GI50 [37]: 15.9 µM | TGI [37]: 57.3 µM | GI50 [38]: 15.5 µM | TGI [38]: 84.8 µM | GI50 [39]: 12 µM | TGI [39]: > 100 µM | GI50 [40]: 27.3 µM | TGI [40]: > 100 µM | GI50 [41]: 23.4 µM | TGI [41]: > 100 µM | GI50 [42]: 3.94 µM | TGI [42]: 27.4 µM | GI50 [43]: 12.3 µM | TGI [43]: 42.8 µM | GI50 [44]: 16.2 µM | TGI [44]: 71 µM | GI50 [45]: 5.41 µM | TGI [45]: > 100 µM | GI50 [46]: 16.3 µM | TGI [46]: > 100 µM | GI50 [47]: 4.07 µM | TGI [47]: > 100 µM | GI50 [48]: 6.08 µM | TGI [48]: > 100 µM | GI50 [49]: 5.14 µM | TGI [49]: > 100 µM | GI50 [50]: 29 µM | TGI [50]: > 100 µM | GI50 [51]: 14.2 µM | TGI [51]: > 100 µM | GI50 [52]: 3.6 µM | TGI [52]: 42.2 µM | GI50 [53]: 6.51 µM | TGI [53]: 35.7 µM | GI50 [54]: 14.9 µM | TGI [54]: 43.7 µM | GI50 [55]: 23 µM | TGI [55]: > 100 µM

COC(=O)[C@]12CC[C@@H](C)[C@H](C)[C@@H]1C1=CC[C@@H]3[C@@]4(C)C(C=O)=C[C@@](C)(COC(C)=O)[C@@H]4[C@H](O)C[C@@]3(C)[C@]1(C)CC2
GI50 [1]: 2.14 µM | TGI [1]: 4.96 µM | GI50 [2]: 1.56 µM | TGI [2]: 3.03 µM | GI50 [3]: 2.79 µM | TGI [3]: 9.73 µM | GI50 [4]: 1.73 µM | TGI [4]: 5.74 µM | GI50 [5]: 2.35 µM | TGI [5]: 6.93 µM | GI50 [6]: 2.76 µM | TGI [6]: 10.2 µM | GI50 [7]: 1.82 µM | TGI [7]: 3.34 µM | GI50 [8]: 2.95 µM | TGI [8]: 9.7 µM | GI50 [9]: 1.94 µM | TGI [9]: 5.51 µM | GI50 [10]: 1.89 µM | TGI [10]: 4.26 µM | GI50 [11]: 4.35 µM | TGI [11]: 16.1 µM | GI50 [12]: 1.76 µM | TGI [12]: 3.63 µM | GI50 [13]: 2.73 µM | TGI [13]: 8.77 µM | GI50 [14]: 2.27 µM | TGI [14]: 5.41 µM | GI50 [15]: 1.83 µM | TGI [15]: 3.6 µM | GI50 [16]: 1.66 µM | TGI [16]: 3.19 µM | GI50 [17]: 1.92 µM | TGI [17]: 4.36 µM | GI50 [56]: 2.6 µM | TGI [56]: 10.2 µM | GI50 [18]: 2.65 µM | TGI [18]: 9.14 µM | GI50 [19]: 1.76 µM | TGI [19]: 4.1 µM | GI50 [20]: 2.53 µM | TGI [20]: 5.42 µM | GI50 [21]: 2.09 µM | TGI [21]: 5.04 µM | GI50 [22]: 2.3 µM | TGI [22]: 6.08 µM | GI50 [23]: 1.57 µM | TGI [23]: 3.84 µM | GI50 [24]: 2.76 µM | TGI [24]: 7.35 µM | GI50 [26]: 1.54 µM | TGI [26]: 3.06 µM | GI50 [27]: 1.92 µM | TGI [27]: 3.97 µM | GI50 [28]: 1.84 µM | TGI [28]: 5.4 µM | GI50 [29]: 2.64 µM | TGI [29]: 10.7 µM | GI50 [30]: 1.95 µM | TGI [30]: 4.8 µM | GI50 [31]: 2.03 µM | TGI [31]: 5.6 µM | GI50 [32]: 1.93 µM | TGI [32]: 4.14 µM | GI50 [33]: 2.72 µM | TGI [33]: 12.3 µM | GI50 [34]: 1.91 µM | TGI [34]: 3.93 µM | GI50 [35]: 3.22 µM | TGI [35]: 14.8 µM | GI50 [36]: 2.66 µM | TGI [36]: 8.21 µM | GI50 [37]: 1.89 µM | TGI [37]: 3.9 µM | GI50 [38]: 3.46 µM | TGI [38]: 8.83 µM | GI50 [39]: 3.29 µM | TGI [39]: 12.3 µM | GI50 [40]: 3.03 µM | TGI [40]: 10.4 µM | GI50 [41]: 2.74 µM | TGI [41]: 6.04 µM | GI50 [42]: 1.4 µM | TGI [42]: 4.55 µM | GI50 [43]: 2.15 µM | TGI [43]: 5.51 µM | GI50 [44]: 2.16 µM | TGI [44]: 4.92 µM | GI50 [57]: 1.57 µM | TGI [57]: 2.91 µM | GI50 [45]: 2.75 µM | TGI [45]: 14.2 µM | GI50 [46]: 1.67 µM | TGI [46]: 3.54 µM | GI50 [47]: 1.98 µM | TGI [47]: 7.01 µM | GI50 [48]: 3.57 µM | TGI [48]: 9.77 µM | GI50 [49]: 1.34 µM | TGI [49]: 5.02 µM | GI50 [50]: 2.67 µM | TGI [50]: 9.43 µM | GI50 [51]: 2.02 µM | TGI [51]: 4.8 µM | GI50 [52]: 1.65 µM | TGI [52]: 4.28 µM | GI50 [53]: 2.03 µM | TGI [53]: 5.11 µM | GI50 [54]: 2.61 µM | TGI [54]: 6.15 µM | GI50 [58]: 1.74 µM | TGI [58]: 10.5 µM | GI50 [55]: 1.92 µM | TGI [55]: 4.32 µM
